From patent US12606556B2, “TYK-2 inhibitor” (BEIGENE, LTD., priority 2020, dated 2026)

Assays:
[1] = target: T1, TYK2-JH2 (aa 575-869, in-house) protein (Homo sapiens, UniProt P29597); assay: TYK2-JH2 biochemical assay (HTRF, blocking of TYK2-JH2 protein with its probe); type: binding; conditions: for IC50: HTRF, 0.2 nM recombinant TYK2-JH2, Probe 1; for Biochemical assay Selectivity fold (TYK2/JAK1): TYK2-JH2 vs JAK1-JH2 biochemical IC50
T1 construct: TYK2-JH2 (aa 575-869, in-house) protein; made in house
In short: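 Recombinant TYK2-JH2 (0.2 nM) pre-incubated with compounds (10 doses, 5-fold dilutions) 0.5 h at RT in HEPES pH 7.5 buffer with MgCl2, BSA, DTT, Brij-35; biotinylated probe (10 nM working solution, KD=10 nM) plus anti-6His Tb cryptate/streptavidin-XL665 added, 1 h RT. HTRF ratio read; IC50 from four-parameter logistic fit.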

[2] = target: T2, JAK1-JH2 protein (aa 561-860, in-house) (Homo sapiens, UniProt P23458); assay: JAK1-JH2 biochemical assay (HTRF, blocking of JAK1-JH2 protein with its probe); type: binding; conditions: 1.17 nM recombinant JAK1-JH2, Probe 2
T2 construct: JAK1-JH2 protein (aa 561-860, in-house); made in house
In short: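 HTRF probe-displacement assay using recombinant human JAK1 pseudokinase domain (aa 561-860, 1.17 nM in pre-incubation step), pre-incubated 0.5 h at room temperature with 10-dose 5-fold compound series. Buffer: 20 mM HEPES pH 7.5, 10 mM MgCl2, 0.005% BSA, 2 mM DTT, 0.015% Brij-35. IC50 by four-parameter logistic fit of 615/665 nm ratio.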

[3] = test system: JAK2, TYK2/p-STAT4 (Tyr693) activated by IL-12 in NK-92 cell line; assay: IL-12-JAK2, TYK2/p-STAT4 (Tyr693) inhibition cellular assay; type: cell-based; conditions: for IC50: NK92, 0.5 h, NK-92 cells, IL-12 40 ng/ml, 30 min, read-out: Cellular assay pSTAT4/IL-12 IC50; for Cellular assay Selectivity fold (TYK2/JAK1): pSTAT4/IL-12 vs pSTAT3/IL-6 cellular IC50
In short: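 NK-92 cells were starved overnight without IL-2 and seeded at 5×10^4 per well in 1640 medium with 0.1% BSA. Lysate p-STAT4 (Tyr693) was measured by AlphaLISA SureFire, and IC50 was fitted with a 4-parameter logistic model.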

[4] = test system: JAK1/p-STAT3(Tyr705) activated by IL-6 in TF-1 cell line; assay: IL-6-JAK1/p-STAT3(Tyr705) inhibition cellular assay; type: cell-based; conditions: Homo sapiens, 0.5 h; TF-1 cells, IL-6 50 ng/ml, 30 min; read-out: Cellular assay pSTAT3/IL-6 IC50

T1 sequence (P29597 575-869): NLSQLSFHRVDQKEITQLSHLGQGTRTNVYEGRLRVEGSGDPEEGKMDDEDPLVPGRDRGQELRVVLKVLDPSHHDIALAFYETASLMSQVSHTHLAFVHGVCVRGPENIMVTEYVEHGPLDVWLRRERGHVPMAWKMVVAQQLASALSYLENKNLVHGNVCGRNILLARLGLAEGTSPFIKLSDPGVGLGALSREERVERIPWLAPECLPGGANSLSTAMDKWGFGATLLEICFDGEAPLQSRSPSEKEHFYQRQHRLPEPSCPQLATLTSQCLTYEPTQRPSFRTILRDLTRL
T2 sequence (P23458 561-860): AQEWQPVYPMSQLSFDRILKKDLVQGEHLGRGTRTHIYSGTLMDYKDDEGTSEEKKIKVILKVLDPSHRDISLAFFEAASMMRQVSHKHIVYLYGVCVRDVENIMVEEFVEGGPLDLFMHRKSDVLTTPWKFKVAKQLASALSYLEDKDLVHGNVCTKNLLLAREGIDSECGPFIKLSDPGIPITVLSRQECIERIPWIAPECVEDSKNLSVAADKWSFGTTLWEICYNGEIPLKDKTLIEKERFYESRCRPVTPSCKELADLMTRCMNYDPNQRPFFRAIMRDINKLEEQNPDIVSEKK

**Q.** For `CNC(=O)c1nnc(NC(=O)C2CC2)cc1Nc1nc2ccc(N3CC(COC)C3)cn2n1` [Example E15, 6-(cyclopropanecar-boxamido)-4-((6-(3-(methoxymethyl)azetidin-1-yl)-[1,2,4]triazolo[1,5-a]pyridin-2-yl)amino)-N-methylpyridazine-3-carboxamide], which IC50 [1] is on record?
**A.** 0.045 nM

**Q.** And the “Biochemical assay Selectivity fold (TYK2/JAK1)” value [1]?
**A.** 29 fold

**Q.** And the IC50 [2]?
**A.** 1.3 nM

**Q.** And the IC50 [3]?
**A.** 8.14 nM

**Q.** And the “Cellular assay Selectivity fold (TYK2/JAK1)” value [3]?
**A.** >1228 fold

**Q.** What about the IC50 [4] of the same compound?
**A.** > 10000 nM

**Q.** With `CNC(=O)c1nnc(NC(=O)C2CC2)cc1Nc1nc2ccc(N3CC(OCCOC)C3)cn2n1` [Example E16, 6-(cyclopropanecar-boxamido)-4-((6-(3-(2-methoxyethoxy)azetidin-1-yl)-[1,2,4]triazolo[1,5-a]pyridin-2-yl)amino)-N-methylpyridazine-3-carboxamide] as the compound, how does the IC50 [1] read?
**A.** 0.046 nM

**Q.** What about the “Biochemical assay Selectivity fold (TYK2/JAK1)” value [1] of the same compound?
**A.** 20 fold

**Q.** What about the IC50 [2] of the same compound?
**A.** 0.93 nM

**Q.** And the IC50 [3]?
**A.** 15.6 nM

**Q.** What about the “Cellular assay Selectivity fold (TYK2/JAK1)” value [3] of the same compound?
**A.** 186 fold

**Q.** What about the IC50 [4] of the same compound?
**A.** 2910 nM

**Q.** How did the IC50 [1] turn out when `CNC(=O)c1nnc(NC(=O)C2CC2)cc1Nc1nc2ccc(N3CC(F)(COC)C3)cn2n1` [Example E17, 6-(cyclopropanecar-boxamido)-4-((6-(3-fluoro-3-(methoxy-methyl)azetidin-1-yl)-[1,2,4]triazolo[1,5-a]pyridin-2-yl)amino)-N-methylpyridazine-3-carboxamide] was run?
**A.** 0.071 nM

**Q.** What about the “Biochemical assay Selectivity fold (TYK2/JAK1)” value [1] of the same compound?
**A.** 35 fold

**Q.** What about the IC50 [2] of the same compound?
**A.** 2.5 nM

**Q.** What about the IC50 [3] of the same compound?
**A.** 8.28 nM

**Q.** And the “Cellular assay Selectivity fold (TYK2/JAK1)” value [3]?
**A.** 317 fold

**Q.** And the IC50 [4]?
**A.** 2630 nM

**Q.** `CNC(=O)c1nnc(NC(=O)C2CC2)cc1Nc1nc2ccc(N3CC(S(C)(=O)=O)C3)cn2n1` [Example E18, 6-(cyclopropanecar-boxamido)-N-methyl-4-((6-(3-(methyl-sulfonyl)azetidin-1-yl)-[1,2,4]triazolo [1,5-a]pyridin-2-yl)amino)pyridazine-3-carboxamide] was tested. Which IC50 [1] did it give?
**A.** 0.12 nM

**Q.** And the “Biochemical assay Selectivity fold (TYK2/JAK1)” value [1]?
**A.** 13 fold

**Q.** What about the IC50 [2] of the same compound?
**A.** 1.5 nM

**Q.** And the IC50 [3]?
**A.** 645 nM

**Q.** And the “Cellular assay Selectivity fold (TYK2/JAK1)” value [3]?
**A.** >15.5 fold

**Q.** What about the IC50 [4] of the same compound?
**A.** > 10000 nM

**Q.** `CNC(=O)c1nnc(NC(=O)C2CC2)cc1Nc1nc2ccc(N3CC(Oc4ccc(F)cc4F)C3)cn2n1` [Example E19, 6-(cyclopropanecar-boxamido)-4-((6-(3-(2,4-difluorophenoxy)azetidin-1-yl)-[1,2,4]triazolo[1,5-a]pyridin-2-yl)amino)-N-methylpyridazine-3-carboxamide] was tested. Which IC50 [1] did it give?
**A.** 0.14 nM

**Q.** What about the “Biochemical assay Selectivity fold (TYK2/JAK1)” value [1] of the same compound?
**A.** 60 fold

**Q.** And the IC50 [2]?
**A.** 8.4 nM

**Q.** And the IC50 [3]?
**A.** 105 nM

**Q.** And the “Cellular assay Selectivity fold (TYK2/JAK1)” value [3]?
**A.** >95 fold

**Q.** What about the IC50 [4] of the same compound?
**A.** > 10000 nM

**Q.** Which IC50 [1] does the source give for `CNC(=O)c1nnc(NC(=O)C2CC2)cc1Nc1nc2ccc(N3CCC3COC)cn2n1` (stereo not drawn) [Example E20, 6-(cyclopropanecar-boxamido)-4-((6-(2-(methoxymethyl)azetidin-1-yl)-[1,2,4]triazolo[1,5-a]pyridin-2-yl)amino)-N-methylpyridazine-3-carboxamide] here?
**A.** 0.089 nM

**Q.** And the “Biochemical assay Selectivity fold (TYK2/JAK1)” value [1]?
**A.** 36 fold

**Q.** And the IC50 [2]?
**A.** 3.2 nM

**Q.** What about the IC50 [3] of the same compound?
**A.** 16.4 nM

**Q.** And the “Cellular assay Selectivity fold (TYK2/JAK1)” value [3]?
**A.** >609 fold

**Q.** And the IC50 [4]?
**A.** > 10000 nM

**Q.** With `CNC(=O)c1nnc(NC(=O)C2CC2)cc1Nc1nc2ccc(N3CCC(N4CC(N(C)C)C4)CC3)cn2n1` [Example E21, 6-(cyclopropanecar-boxamido)-4-((6-(4-(3-(dimethylamino)azetidin-1-yl)piperidin-1-yl)-[1,2,4]triazolo [1,5-a]pyridin-2-yl)amino)-N-methylpyridazine-3-carboxamide] as the compound, how does the IC50 [1] read?
**A.** 0.077 nM

**Q.** And the “Biochemical assay Selectivity fold (TYK2/JAK1)” value [1]?
**A.** 36 fold

**Q.** And the IC50 [2]?
**A.** 2.78 nM

**Q.** And the IC50 [3]?
**A.** 42 nM

**Q.** What about the “Cellular assay Selectivity fold (TYK2/JAK1)” value [3] of the same compound?
**A.** >238 fold

**Q.** What about the IC50 [4] of the same compound?
**A.** > 10000 nM

**Q.** Which results are given for `CCN(CC)C1CN(c2ccc3nc(Nc4cc(NC(=O)C5CC5)nnc4C(=O)NC)nn3c2)C1` [Example E22, 6-(cyclopropanecar-boxamido)-4-((6-(3-(diethylamino)azetidin-1-yl)-[1,2,4]triazolo [1,5-a]pyridin-2-yl)amino)-N-methylpyridazine-3-carboxamide]?
**A.** IC50 [1]: 0.093 nM; Biochemical assay Selectivity fold (TYK2/JAK1) [1]: 11 fold; IC50 [2]: 1.03 nM; IC50 [3]: 37.2 nM; Cellular assay Selectivity fold (TYK2/JAK1) [3]: 138 fold; IC50 [4]: 5120 nM

**Q.** What does the source list for `CNC(=O)c1nnc(NC(=O)C2CC2)cc1Nc1nc2ccc(N3CC(N(C)S(C)(=O)=O)C3)cn2n1` [Example F1, 6-(cyclopropanecarboxamido)-N-methyl-4-((6-(3-(N-methylmethylsulfonamido)azetidin-1-yl)-[1,2,4]triazolo[1,5-a]pyridin-2-yl)amino)pyridazine-3-carboxamide]?
**A.** IC50 [1]: 0.12 nM; Biochemical assay Selectivity fold (TYK2/JAK1) [1]: 22 fold; IC50 [2]: 2.6 nM; IC50 [3]: 95 nM; Cellular assay Selectivity fold (TYK2/JAK1) [3]: >105 fold; IC50 [4]: > 10000 nM

**Q.** For `CNC(=O)c1nnc(NC(=O)C2CC2)cc1Nc1nc2ccc(N3CC(C(C)O)C3)cn2n1` (stereo not drawn) [Example G1, 6-(cyclopropanecarboxamido)-4-((6-(3-(1-hydroxyethyl)azetidin-1-yl)-[1,2,4]triazolo[1,5-a]pyridin-2-yl)amino)-N-methylpyridazine-3-carboxamide], which IC50 [1] is on record?
**A.** 0.076 nM

**Q.** What about the “Biochemical assay Selectivity fold (TYK2/JAK1)” value [1] of the same compound?
**A.** 24 fold

**Q.** And the IC50 [2]?
**A.** 1.8 nM

**Q.** What about the IC50 [3] of the same compound?
**A.** 9.05 nM

**Q.** And the “Cellular assay Selectivity fold (TYK2/JAK1)” value [3]?
**A.** >1104 fold

**Q.** What about the IC50 [4] of the same compound?
**A.** > 10000 nM

**Q.** Which results are given for `CNC(=O)c1nnc(NC(=O)C2CC2)cc1Nc1nc2ccc(N3CC(O)C3)cn2n1` [Example H1, 6-(cyclopropanecarboxamido)-4-((6-(3-hydroxyazetidin-1-yl)-[1,2,4]triazolo[1,5-a]pyridin-2-yl)amino)-N-methylpyridazine-3-carboxamide]?
**A.** IC50 [1]: 0.057 nM; Biochemical assay Selectivity fold (TYK2/JAK1) [1]: 21 fold; IC50 [2]: 1.2 nM; IC50 [3]: 34.2 nM; Cellular assay Selectivity fold (TYK2/JAK1) [3]: >292 fold; IC50 [4]: > 10000 nM

**Q.** Which results are given for `CNC(=O)c1nnc(NC(=O)C2CC2)cc1Nc1nc2ccc(N3CC(F)(CO)C3)cn2n1` [Example J1, 6-(cyclopropanecarboxamido)-4-((6-(3-fluoro-3-(hydroxymethyl)azetidin-1-yl)-[1,2,4]triazolo[1,5-a]pyridin-2-yl)amino)-N-methylpyridazine-3-carboxamide]?
**A.** IC50 [1]: 0.086 nM; Biochemical assay Selectivity fold (TYK2/JAK1) [1]: 21 fold; IC50 [2]: 1.8 nM; IC50 [3]: 15.6 nM; Cellular assay Selectivity fold (TYK2/JAK1) [3]: >641 fold; IC50 [4]: > 10000 nM

**Q.** How did the IC50 [1] turn out when `CNC(=O)c1nnc(NC(=O)C2CC2)cc1Nc1nc2ccc(N3CCC3CO)cn2n1` (stereo not drawn) [Example J2, 6-(cyclopro-panecar-boxamido)-4-((6-(2-(hydroxy-methyl)azetidin-1-yl)-[1,2,4]triazolo[1,5-a]pyridin-2-yl)amino)-N-methyl-pyridazine-3-carboxamide] was run?
**A.** 0.053 nM

**Q.** And the “Biochemical assay Selectivity fold (TYK2/JAK1)” value [1]?
**A.** 25 fold

**Q.** What about the IC50 [2] of the same compound?
**A.** 1.3 nM

**Q.** What about the IC50 [3] of the same compound?
**A.** 14.9 nM

**Q.** What about the “Cellular assay Selectivity fold (TYK2/JAK1)” value [3] of the same compound?
**A.** 292 fold

**Q.** What about the IC50 [4] of the same compound?
**A.** 4360 nM

**Q.** What does the source list for `CNC(=O)c1nnc(NC(=O)C2CC2)cc1Nc1nc2ccc(N3C(=O)CC3c3ccccc3)cn2n1` (stereo not drawn) [Example K1, 6-(cyclopropanecarboxamido)-N-methyl-4-((6-(2-oxo-4-phenylazetidin-1-yl)-[1,2,4]triazolo[1,5-a]pyridin-2-yl)amino)pyridazine-3-carboxamide]?
**A.** IC50 [1]: 0.5 nM; Biochemical assay Selectivity fold (TYK2/JAK1) [1]: 8 fold; IC50 [2]: 3.8 nM; IC50 [3]: 219 nM; Cellular assay Selectivity fold (TYK2/JAK1) [3]: >46 fold; IC50 [4]: > 10000 nM
